Values joined by “and” are separate entries in the source; they are usually repeats but may differ in a detail not shown here. Equal values may be shown once. Read-outs that look alike come from different tables or passages of the source. Marks after values point to notes of the source that are not given here.
Key:
[1] = Phase 2 (NCT04116437): recurrence and change in severity of ibrutinib/acalabrutinib intolerance events on zanubrutinib; type: in vivo, human
Description: The primary endpoints were the recurrence and the change in severity of ibrutinib and acalabrutinib intolerance events compared with corresponding treatment-emergent adverse events within each patient. In this document, the term “adverse event” refers to a “treatment-emergent adverse event” unless otherwise stated. Hereafter, the full “treatment-emergent adverse event” was not used.
Intolerance was defined as an unacceptable toxicity such that treatment should be discontinued per investigator opinion despite optimal supportive care.
If while on zanubrutinib a patient experienced the same adverse event that led to their intolerance to ibrutinib, the patient was said to experience a recurrence of an ibrutinib intolerant event. […] Otherwise, the severity was said to be the same. For acalabrutinib intolerant events, recurrence and change in severity were defined similarly.
Primary endpoint was the recurrence and change in severity of intolerance events per protocol.
The study design comprised two cohorts. […] Patients were not allowed to switch schedule during the study.

[2] = multiple doses of a moderate CYP3A inhibitor; cited from earlier work
[3] = Phase 1 DDI study: treatment-emergent adverse events; type: in vivo, human
Description: Safety was assessed by monitoring and recording of adverse events (AEs), serious adverse events (SAEs), clinical laboratory tests, physical examinations, and vital signs. […] A TEAE was defined as an AE that started during or after the first dose or started before the first dose and increased in severity after the first dose. AEs were classified based on MedDRA Version 24.0.
Safety and tolerability were assessed, when applicable, by incidence, severity, change from baseline values, and abnormal values for all relevant parameters such as AEs, laboratory parameters, vital signs, and physical examination.

[4] = cited from earlier work
[5] = system: relapsed/refractory CLL/SLL; settings: for Duration of response events: death / Duration of response events: progressive disease / Duration of response: events: responders
[6] = cited from earlier work; remark: listed apart in the source
[7] = coadministration with itraconazole
[8] = IRC assessed, ITT, Table 15 data cut-off
[9] = IRC assessed, ITT, final analysis
[10] = IRC assessed, del(17p)/TP53 mutation, final analysis
[11] = investigator assessed, ITT, Table 15 data cut-off
[12] = investigator assessed, ITT, final analysis
[13] = investigator assessed, del(17p)/TP53 mutation, final analysis

Question: Which results are given for `C=CC(=O)N1CCC([C@@H]2CCNc3c(C(N)=O)c(-c4ccc(Oc5ccccc5)cc4)nn32)CC1` [zanubrutinib, (S)-7-(1-acryloylpiperidin-4-yl)-2-(4-phenoxyphenyl)-4,5,6,7-tetrahydropyrazolo[1,5-a]pyrimidine-3-carboxamide]?
Answer: Patients with acalabrutinib-intolerance event recurrence who discontinued zanubrutinib ([1]; 3 patients): 66.7%; Recurring acalabrutinib-intolerance events at lower severity ([1]; 3 recurring events): 33.3% and 33.0%; Recurring acalabrutinib-intolerance events at same severity ([1]; 3 recurring events): 66.6% and 66.7%; Grade 3 acalabrutinib-intolerance events that recurred ([1]; 4 grade 3 events): 25.0%; Patients without recurrence of acalabrutinib-intolerance events ([1]; 10 patients): 70.0%; Recurring grade 3 ibrutinib-intolerance events at lower severity ([1]; 13 events): 92.3%; Recurring grade 3 ibrutinib-intolerance events at same severity ([1]; 13 events): 7.7%; Acalabrutinib-intolerance events that did not recur ([1]; 18 events): 83.3%; Acalabrutinib-intolerance events that recurred: arthralgia ([1]; 18 events): 5.6%; Acalabrutinib-intolerance events that recurred: myalgia ([1]; 18 events): 11.1%; Patients with recurrent ibrutinib-intolerance event who discontinued zanubrutinib ([1]; 25 patients): 24.0%; Recurring ibrutinib-intolerance events at lower severity ([1]; 34 recurring events): 79.4%; Recurring ibrutinib-intolerance events at same severity ([1]; 34 recurring events): 20.6%; Grade 3 ibrutinib-intolerance events that recurred ([1]; 38 grade 3 events): 34.2%; Patients without recurrence of ibrutinib-intolerance event ([1]; 62 patients): 59.7%; Ibrutinib-intolerance events that did not recur ([1]; 115 events): 70.4%; Intolerance events that did not recur ([1]; 141 intolerance events): 68.1%; Patients with reoccurrence of previously intolerant adverse event(s) ([1]; all patients): 44.4%; Patients without any recurrence of intolerance event(s) ([1]; all patients (clinical study report cut-off)): 56.6%; Median time to first recurrence of ibrutinib-intolerance event ([1]; in vivo): 61 days; Increase in zanubrutinib Cmax and AUC [2]: 2- to 3 fold and 2 to 3 fold; General disorders and administration site conditions TEAE ([3]; N = 13): 1 (7.7) n (%); Overall TEAEs ([3]; N = 13): 1 (7.7) n (%); Vessel puncture site hematoma TEAE ([3]; N = 13): 1 (7.7) n (%); Tolerability ([3]; single 320 mg dose alone or with 300 mg rifabutin, healthy volunteers): well tolerated; Increase in zanubrutinib AUC0-∞ [4, 7]: 3.8 fold; Increase in zanubrutinib Cmax [4, 7]: 2.6 fold; Decrease in zanubrutinib AUC0-∞ ([4]; coadministration with rifampin): 13.5 fold; Decrease in zanubrutinib Cmax ([4]; coadministration with rifampin): 12.6 fold; Exposure change ([4]; coadministration with rifampin): 13 fold; 24-month event-free rate, duration of response (95% CI) ([5]; IRC assessed): 77.4 (71.0-82.5) %; Median duration of response (95% CI) ([5]; IRC assessed): had not yet been reached; Best response CR or CRi [5, 8]: 13 (4.0) n (%); Best response PD [5, 8]: 3 (0.9) n (%); Best response PR or nPR [5, 8]: 250 (76.5) n (%); Best response PR-L [5, 8]: 33 (10.1) n (%); Best response SD [5, 8]: 20 (6.1) n (%); Discontinue prior to first assessment, NA or NE [5, 8]: 8 (2.4) n (%); ORR (95% CI) [5, 8]: 80.4† (75.7, 84.6) %; Best response CR or CRi [5, 9]: 22 (6.7) n (%); Best response PD [5, 9]: 3 (0.9) n (%); Best response PR or nPR [5, 9]: 260 (79.5) n (%); Best response PR-L [5, 9]: 18 (5.5) n (%); Best response SD [5, 9]: 16 (4.9) n (%); Discontinue prior to first assessment, NA or NE [5, 9]: 8 (2.4) n (%); ORR [5, 9]: 86.2%; Best response CR or CRi [5, 10]: 6 (8.0) n (%); Best response PD [5, 10]: 1 (1.3) n (%); Best response PR or nPR [5, 10]: 58 (77.3) n (%); Best response PR-L [5, 10]: 4 (5.3) n (%); Best response SD [5, 10]: 3 (4.0) n (%); Discontinue prior to first assessment, NA or NE [5, 10]: 3 (4.0) n (%); ORR [5, 10]: 85.3%; Median duration of response (95% CI) ([5]; IRC assessed, listed as Zanubrutinib): NE (31.3, NE); Duration of response events: death ([5]; IRC assessed): 20 (7.1) n (%); Duration of response events: progressive disease ([5]; IRC assessed): 40 (14.2) n (%); Duration of response: events ([5]; IRC assessed): 60 (21.3) n (%); Treatment discontinuation due to progressive disease ([5]; ITT): 7.3%; PFS HR (95% CI), zanubrutinib over ibrutinib ([5]; accounting for drug interruption (ITT), independent review): 0.71 (0.53, 0.95); PFS HR (95% CI), zanubrutinib over ibrutinib ([5]; accounting for drug interruption (ITT), investigator assessment): 0.71 (0.52, 0.96); PFS HR (95% CI), zanubrutinib over ibrutinib ([5]; alternative censoring rules (ITT), independent review): 0.63 (0.48, 0.84); PFS HR (95% CI), zanubrutinib over ibrutinib ([5]; alternative censoring rules (ITT), investigator assessment): 0.65 (0.49, 0.87); Deaths ([5]; final analysis data cut-off): 48 n; PFS HR (95% CI), zanubrutinib over ibrutinib ([5]; in vivo): 0.62 (0.46, 0.84) and 0.62 (0.45, 0.84); Treatment-failure event-free rate at 24 months ([5]; in vivo): 79.9%; 24-month event-free rate, duration of response (95% CI) ([5]; investigator assessed): 79.5 (73.1-84.6) %; Median PFS ([5]; investigator assessed): not reached; Median duration of response (95% CI) ([5]; investigator assessed): had not yet been reached; PFS rate at 24 months ([5]; investigator assessed): 78.4%; Patients with disease progression or death ([5]; investigator assessed): 87 patients; Rate of partial response with lymphocytosis or better ([5]; investigator assessed, ITT): 89.9%; Best response CR or CRi [5, 11]: 16 (4.9) n (%); Best response PD [5, 11]: 1 (0.3) n (%); Best response PR or nPR [5, 11]: 244 (74.6) n (%); Best response PR-L [5, 11]: 32 (9.8) n (%); Best response SD [5, 11]: 25 (7.6) n (%); Discontinue prior to first assessment, NA or NE [5, 11]: 9 (2.8) n (%); ORR (95% CI) [5, 11]: 79.5* (74.7, 83.8) %; Best response CR or CRi [5, 12]: 23 (7.0) n (%); Best response PD [5, 12]: 1 (0.3) n (%); Best response PR or nPR [5, 12]: 250 (76.5) n (%); Best response PR-L [5, 12]: 21 (6.4) n (%); Best response SD [5, 12]: 23 (7.0) n (%); Discontinue prior to first assessment, NA or NE [5, 12]: 9 (2.8) n (%); ORR [5, 12]: 83.5%; Best response CR or CRi [5, 13]: 5 (6.7) n (%); Best response PD [5, 13]: 0 n (%); Best response PR or nPR [5, 13]: 56 (74.7) n (%); Best response PR-L [5, 13]: 6 (8.0) n (%); Best response SD [5, 13]: 5 (6.7) n (%); Discontinue prior to first assessment, NA or NE [5, 13]: 3 (4.0) n (%); ORR [5, 13]: 81.3%; Median duration of response (95% CI) ([5]; investigator assessed, listed as Zanubrutinib): NE (31.3, NE); Duration of response events: death ([5]; investigator assessed): 20 (7.3) n (%); Duration of response events: progressive disease ([5]; investigator assessed): 33 (12.1) n (%); Duration of response: events ([5]; investigator assessed): 53 (19.4) n (%); PD detected by decrease in platelet count ([5]; investigator assessment, ITT): 0; PD detected by increase in lymph nodes ([5]; investigator assessment, ITT): 40 (12.2); PD detected by new enlarged lymph nodes ([5]; investigator assessment, ITT): 3 (0.9); PD detected by new or increase in splenomegaly ([5]; investigator assessment, ITT): 8 (2.4); PD detected by new symptomatic disease ([5]; investigator assessment, ITT): 3 (0.9); Patients with disease transformation ([5]; investigator assessment, ITT): 5 (1.5); Patients with progressive disease ([5]; investigator assessment, ITT): 54 (16.5); PFS HR (95% CI), zanubrutinib over ibrutinib ([5]; per protocol population (N = 646), independent review): 0.64 (0.48, 0.85); PFS HR (95% CI), zanubrutinib over ibrutinib ([5]; per protocol population (N = 646), investigator assessment): 0.64 (0.48, 0.85); Median Tmax ([6]; oral administration): 2 h; Mean terminal elimination half-life (t1/2) ([6]; patients with B-cell malignancies): 2 to 4 h; Mean t1/2 ([6]; previous clinical DDI study in healthy volunteers): 6.8 h

— US11911386B2, “Methods of treating B-cell proliferative disorder” (BeiGene Switzerland GmbH, priority 2022, dated 2024)
